The record followed here is patent US8969248B2, “5-iodotriazole derivatives” (Bayer Intellectual Property GmbH, priority 2010, dated 2015).

Common to all, as to type: in vivo
The subject of experiment [1] is Blumeria graminis f. sp. hordei. Briefly: Blumeria graminis test (barley)/protective. The note with it: protective spray, 500 ppm, evaluation 7 days after inoculation. As for the experimental part: [table] To produce an appropriate active ingredient formulation, 1 part by weight of active ingredient is mixed with the specified amounts of solvent and emulsifier, and the concentrate is diluted with water to the desired concentration. To test for protective activity, young plants are sprayed with the active ingredient formulation at the stated application rate. After the spray coating has dried on, the plants are dusted with spores of Blumeria graminis f. sp. hordei.

Another experiment deals with Botrytis cinerea. Briefly: Botrytis test (bean)/protective. Particulars: protective spray, 250 ppm, evaluation 2 days after inoculation. The method, then:
[table] To produce an appropriate active ingredient formulation, 1 part by weight of active ingredient is mixed with the specified amounts of solvent and emulsifier, and the concentrate is diluted with water to the desired concentration. To test for protective activity, young plants are sprayed with the active ingredient formulation at the stated application rate. After the spray coating has dried on, 2 small pieces of agar colonized by Botrytis cinerea are placed onto each leaf.

The next experiment deals with Fusarium graminearum. The note with it: barley, protective spray, 500 ppm, evaluation 5 days after inoculation.
In another experiment the test system is Leptosphaeria nodorum. Briefly: Leptosphaeria nodorum test (wheat)/protective. The note with it: protective spray, 500 ppm, evaluation 8 days after inoculation. The method, then:
[table] To produce an appropriate active ingredient formulation, 1 part by weight of active ingredient is mixed with the specified amounts of solvent and emulsifier, and the concentrate is diluted with water to the desired concentration. To test for protective activity, young plants are sprayed with the active ingredient formulation at the stated application rate. After the spray coating has dried on, the plants are sprayed with spores with a spore suspension of Leptosphaeria nodorum.

In the next experiment the test system is Puccinia recondita. The experiment is described as follows: Puccinia test (wheat)/protective. The note with it: protective spray, 500 ppm, evaluation 7-9 days after inoculation.
In a further experiment the test system is Pyrenophora teres. The experiment is described as follows: Pyrenophora teres test (barley)/protective. The note with it: protective spray, 500 ppm, evaluation 8 days after inoculation. As for the experimental part:
[table] To produce an appropriate active ingredient formulation, 1 part by weight of active ingredient is mixed with the specified amounts of solvent and emulsifier, and the concentrate is diluted with water to the desired concentration. To test for protective activity, young plants are sprayed with the active ingredient formulation at the stated application rate. After the spray coating has dried on, the plants are sprayed with a spore suspension of Pyrenophora teres.

For another experiment, the system named is Septoria tritici. Briefly: Septoria tritici test (wheat)/protective. Particulars: protective spray, 500 ppm, evaluation 21 days after inoculation.
For the next experiment, the system named is Sphaerotheca fuliginea. The experiment is described as follows: Sphaerotheca test (cucumber)/protective. Particulars: protective spray, 500 ppm, evaluation 7 days after inoculation. As for the experimental part:
[table] To produce an appropriate active ingredient formulation, 1 part by weight of active ingredient is mixed with the specified amounts of solvent and emulsifier, and the concentrate is diluted with water to the desired concentration. To test for protective activity, young cucumber plants are sprayed with the active ingredient formulation at the stated application rate. 1 day after the treatment, the plants are inoculated with a spore suspension of Sphaerotheca fuliginea. The plants are then placed in a greenhouse at 70% relative air humidity and a temperature of 23° C.

In another experiment the test system is Uromyces appendiculatus. Briefly: Uromyces test (bean)/protective. The note with it: protective spray, 100 ppm, evaluation 10 days after inoculation. The method, then:
(§1) [table] To produce an appropriate active ingredient formulation, 1 part by weight of active ingredient is mixed with the specified amounts of solvent and emulsifier, and the concentrate is diluted with water to the desired concentration. To test for protective activity, young plants are sprayed with the active ingredient formulation at the stated application rate. […] The plants are then placed in a greenhouse at approx. 21° C. and a relative air humidity of approx. 90%.

For a further experiment, the system named is Venturia inaequalis. The experiment is described as follows: Venturia test (apple)/protective. The note with it: protective spray, 100 ppm, evaluation 10 days after inoculation. The method, then: as §1
Another experiment has as its system Pyricularia oryzae. Particulars: rice, protective spray, 250 ppm, evaluation 5 days after inoculation.
A further experiment concerns Cochliobolus miyabeanus. Briefly: Cochliobolus test (rice)/protective. Particulars: protective spray, 250 ppm, evaluation 4 days after inoculation.
For another experiment, the system named is Phakopsora pachyrhizi. The experiment is described as follows: Phakopsora test (soya beans)/protective. The note with it: protective spray, 100 ppm, evaluation 1 days after inoculation (so in the source).

The structures appear in SMILES notation.

Consider `OC(Cc1ccc(F)cc1)(Cn1ncnc1I)C1(Cl)CC1` (stereo not shown) [Compound 4], for which the “Efficacy (%)” value in [1] is on record as 100%; in the experiment on Botrytis cinerea, 89%; in the experiment on Fusarium graminearum, 100%; in the experiment with Leptosphaeria nodorum, 93%; in the experiment with Puccinia recondita, 100%; in the experiment on Pyrenophora teres, 100%. Moreover, the “Efficacy (%)” value is on record as 100% in the experiment on Septoria tritici; 100% in the experiment on Sphaerotheca fuliginea; 100% with Uromyces appendiculatus; 100% with Venturia inaequalis; ≥ 80% in the experiment with Pyricularia oryzae. The efficacy in the experiment on Cochliobolus miyabeanus is reported as ≥ 80%.
As for `OC(Cc1ccccc1Cl)(Cn1ncnc1I)C1(F)CC1` (stereo not shown) [Compound 13], the “Efficacy (%)” value in experiment [1] came out at 100%; in the experiment with Fusarium graminearum, 100%; with Leptosphaeria nodorum, 86%; with Pyrenophora teres, 100%; in the experiment with Septoria tritici, 100%; in the experiment on Sphaerotheca fuliginea it was 100%. The “Efficacy (%)” value with Uromyces appendiculatus is 100%; in the experiment on Venturia inaequalis it was 99%.
`OC(Cn1ncnc1I)(c1ccc(F)cc1F)C1(Oc2ccc(F)cc2)CC1` (stereo not shown) [Compound 10]: the “Efficacy (%)” value in the experiment with Puccinia recondita is listed as 100%; with Sphaerotheca fuliginea it was 100%; in the experiment on Uromyces appendiculatus it was 100%; in the experiment with Venturia inaequalis it was 100%; with Pyricularia oryzae, 97%; in the experiment on Phakopsora pachyrhizi it was 98%.
For `CC(C)(C)C(O)(COc1ccc(Cl)cc1)Cn1ncnc1I` (stereo not shown) [Compound 18], the “Efficacy (%)” value in experiment [1] was found to be 100%; with Leptosphaeria nodorum, 100%; in the experiment on Puccinia recondita, 100%; in the experiment with Pyrenophora teres, 93%; in the experiment on Septoria tritici, 100%; in the experiment with Sphaerotheca fuliginea, 100%. The “Efficacy (%)” value with Uromyces appendiculatus and in the experiment on Venturia inaequalis was 100% each time.
On to `CC1COC(Cn2ncnc2I)(c2ccc(Oc3ccc(Cl)cc3)cc2Cl)O1` (mixture of isomers) [Compound 8], for which the “Efficacy (%)” value in experiment [1] amounted to 100%; in the experiment with Leptosphaeria nodorum, 94%; in the experiment with Puccinia recondita, 100%; in the experiment with Pyrenophora teres, 88%; in the experiment on Sphaerotheca fuliginea it was 100%; in the experiment on Uromyces appendiculatus, 100%. Besides, the “Efficacy (%)” value with Venturia inaequalis worked out at 100%; in the experiment with Phakopsora pachyrhizi it was 98%.
In the case of `Fc1cccc(C2(Cn3ncnc3I)OC2c2ccccc2Cl)c1` (stereo not shown) [Compound 16], the “Efficacy (%)” value was 90% in the experiment with Puccinia recondita and 100% in the experiment with Sphaerotheca fuliginea.
Take `OC(Cn1ncnc1I)(c1ccc(Br)cc1)C1(Oc2ccc(F)cc2)CC1` (stereo not shown) [Compound 6]: the “Efficacy (%)” value in the experiment on Puccinia recondita and in the experiment with Sphaerotheca fuliginea was 100% throughout.
On to `CC(C)(C)C(O)(CCc1ccc(Cl)cc1)Cn1ncnc1I` (stereo not shown) [Compound 2], for which the “Efficacy (%)” value is listed as 100% in experiment [1]; 90% with Botrytis cinerea; 100% with Fusarium graminearum; 100% with Leptosphaeria nodorum; 100% in the experiment on Puccinia recondita; 94% with Pyrenophora teres. Moreover, the “Efficacy (%)” value in the experiment with Sphaerotheca fuliginea, with Uromyces appendiculatus and in the experiment with Venturia inaequalis was 100% each time.
In the case of `Fc1ccc(C2(Cn3ncnc3I)OC2c2ccccc2Cl)cc1` (stereo not shown) [Compound 1], the “Efficacy (%)” value in experiment [1] was determined as 100%; in the experiment on Botrytis cinerea it was 73%; in the experiment with Fusarium graminearum, 75%; with Leptosphaeria nodorum, 100%; with Puccinia recondita, 100%; in the experiment with Pyrenophora teres it was 78%. For the same compound, the “Efficacy (%)” value in the experiment with Septoria tritici is 100%; in the experiment on Sphaerotheca fuliginea, 100%; in the experiment with Uromyces appendiculatus it was 97%; with Venturia inaequalis, 97%.
With `OC(Cn1ncnc1I)(c1ccc(F)cc1F)C1(Oc2ccccc2Cl)CC1` (stereo not shown) [Compound 11], the “Efficacy (%)” value is 94% in the experiment with Puccinia recondita, 100% in the experiment on Sphaerotheca fuliginea and 93% in the experiment with Pyricularia oryzae.
Take `CC(C1CC1)C(O)(Cn1ncnc1I)c1ccc(Cl)cc1` (stereo not shown) [Compound 17]: the “Efficacy (%)” value with Puccinia recondita was determined as 89%; in the experiment with Sphaerotheca fuliginea, 95%.
On to `OC(Cn1ncnc1I)(c1ccc(Br)cc1)C1(Oc2ccccc2)CC1` (stereo not shown) [Compound 9], for which the “Efficacy (%)” value in the experiment with Puccinia recondita, in the experiment on Sphaerotheca fuliginea, in the experiment on Uromyces appendiculatus and in the experiment on Venturia inaequalis was 100% each time.
As for `OC(Cn1ncnc1I)(c1ccc(Cl)cc1)C1(Oc2ccccc2F)CC1` (stereo not shown) [Compound 7], the “Efficacy (%)” value in the experiment on Puccinia recondita is 100%; in the experiment on Sphaerotheca fuliginea, 100%; in the experiment with Uromyces appendiculatus it was 100%; with Venturia inaequalis it was 100%; in the experiment on Phakopsora pachyrhizi, 98%.
